Data reported in patent US12428406B2 (PMV Pharmaceuticals, Inc., priority 2019, dated 2025).

molecular target: T1, p53 Y220C (Homo sapiens, UniProt P04637, Y220C); assay: In vitro DNA binding activity assay (HTRF / TR-FRET): stabilization of p53 Y220C and increase of its DNA binding activity; type: biochemical; details: recombinant His-tagged p53 Y220C DNA binding domain (aa 94-312), biotin-labeled consensus DNA, incubated at 27° C. or 29° C. for 60 min
T1 construct: The recombinant protein was a truncation mutant containing only amino acids 94-312 of p53; made in house; host or cells: E. coli
T1 sequence (P04637 94-312, change not shown): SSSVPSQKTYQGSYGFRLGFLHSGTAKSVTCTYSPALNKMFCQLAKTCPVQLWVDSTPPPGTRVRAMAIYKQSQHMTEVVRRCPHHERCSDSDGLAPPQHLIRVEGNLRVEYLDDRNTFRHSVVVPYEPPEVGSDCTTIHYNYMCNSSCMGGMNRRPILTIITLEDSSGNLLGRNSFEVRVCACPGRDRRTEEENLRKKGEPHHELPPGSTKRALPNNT
Method in brief: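 Compound effect on DNA binding of recombinant His-p53 Y220C (E. coli) to biotin-labeled consensus DNA, expressed as SC150, the concentration giving 50% increase versus untreated. Serial 3-fold DMSO dilutions of 4.5 mM stocks; room-temperature steps of 15 then 20 min.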

SMILES	SC150 (concentration of the compound required to increase the DNA binding activity by 50%)
CN1CCC(Nc2cccc3c2cc(C#CCNc2ccc(S(C)(=O)=O)cc2O)n3CC(F)(F)F)CC1 [Compound 486A, 5-methanesulfonyl-2-[(3-{4-[(1-methylpiperidin-4-yl)amino]-1-(2,2,2-trifluoroethyl)-1H-indol-2-yl}prop-2-yn-1-yl)amino]phenol]	+ (+ = 0 μM ≤ SC150 < 0.05 μM)
CNC(=O)c1ccc(NCC#Cc2cc3c(N[C@H]4CC[C@H](N5CC6COCC6C5)CC4)cccc3n2CC(F)(F)F)c(OC)c1 (stereo partly drawn) [Compound 434A, 3-methoxy-N-methyl-4-{[3-(4-{[(1R,4R)-4-{hexahydro-1H-furo[3,4-c]pyrrol-5-yl}cyclohexyl]amino}-1-(2,2,2-trifluoroethyl)-1H-indol-2-yl)prop-2-yn-1-yl]amino}benzamide]	+ (+ = 0 μM ≤ SC150 < 0.05 μM)
CCOc1cc(S(C)(=O)=O)ccc1NCC#Cc1cc2c(N[C@H]3CC[C@@H](N4CC5(COC5)C4)CC3)cccc2n1CC(F)(F)F [Compound 235A, 2-{3-[(2-ethoxy-4-methanesulfonyl-phenyl)amino]prop-1-yn-1-yl}-N-[(1S,4S)-4-{2-oxa-6-azaspiro[3.3]heptan-6-yl}cyclo-hexyl]-1-(2,2,2-trifluoroethyl)-1H-indol-4-amine]	+ (+ = 0 μM ≤ SC150 < 0.05 μM)
CNC(=O)c1ccc(NCC#Cc2cc3c(N[C@H]4CC[C@H](N5CC[S+]([O-])CC5)CC4)cccc3n2CC(F)(F)F)c(OC)c1 [Compound 369A, 3-methoxy-N-methyl-4-{[3-(4-{[(1R,4R)-4-(1-oxo-1λ^4-thiomorpholin-4-yl)cyclohexyl]amino}-1-(2,2,2-trifluoroethyl)-1H-indol-2-yl)prop-2-yn-1-yl]amino}benzamide]	+ (+ = 0 μM ≤ SC150 < 0.05 μM)
CCCn1c(C#CCNc2ccc(S(C)(=O)=O)cc2OC)cc2c(N[C@H]3CC[C@H](N4CCOCC4)CC3)cccc21 [Compound 178A, 2-{3-[(4-methane-sulfonyl-2-methoxy-phenyl)amino]prop-1-yn-1-yl}-1-propyl-N-[(1R,4R)-4-(morpholin-4-yl)cyclohexyl]-1H-indol-4-amine]	+ (+ = 0 μM ≤ SC150 < 0.05 μM)
CNC(=O)c1ccc(NCC#Cc2cc3c(N[C@H]4CC[C@@](C)(O)CC4)cccc3n2CC(F)(F)F)c(OC)c1 [Compound 32A, 3-methoxy-N-methyl-4-{[3-(4-{[(1S,4S)-4-hydroxy-4-methylcyclohexyl]amino}-1-(2,2,2-trifluoroethyl)-1H-indol-2-yl)prop-2-yn-1-yl]amino}benzamide]	+ (+ = 0 μM ≤ SC150 < 0.05 μM)
COc1cc(S(C)(=O)=O)ccc1NCC#Cc1cc2c(NC3CC4(CNC4)C3)cccc2n1CC(F)(F)F [Compound 22A, N-{2-azaspiro[3.3]heptan-6-yl}-2-{3-[(4-methane-sulfonyl-2-methoxy-phenyl)amino]prop-1-yn-1-yl}-1-(2,2,2-trifluoroethyl)-1H-indol-4-amine]	+ (+ = 0 μM ≤ SC150 < 0.05 μM)
COc1cc(S(C)(=O)=O)ccc1NCC#Cc1cc2c(NC3CCN(C[C@@H]4COC(=O)O4)CC3)cccc2n1CC(F)(F)F [Compound 563A, (4R)-4-({4-[(2-{3-[(4-methanesulfonyl-2-methoxyphenyl)amino]prop-1-yn-1-yl}-1-(2,2,2-trifluoroethyl)-1H-indol-4-yl)amino]piperidin-1-yl}methyl)-1,3-dioxolan-2-one]	+ (+ = 0 μM ≤ SC150 < 0.05 μM)
COc1cc(S(=O)(=O)N(CCO)CCO)ccc1NCC#Cc1cc2c(N[C@H]3CC[C@@H](N(C)C)CC3)cccc2n1CC(F)(F)F [Compound 69A, N,N-bis(2-hydroxyethyl)-3-methoxy-4-{[3-(4-{[(1S,4S)-4-(dimethyl-amino)cyclohexyl]amino}-1-(2,2,2-trifluoroethyl)-1H-indol-2-yl)prop-2-yn-1-yl]amino}benzene-1-sulfonamide]	+ (+ = 0 μM ≤ SC150 < 0.05 μM)
COCC(=O)N1CCC(Nc2cccc3c2cc(C#CCNc2ccc(S(N)(=O)=O)cc2OC)n3CC(F)(F)F)CC1 [Compound 575A]	+ (+ = 0 μM ≤ SC150 < 0.05 μM)
COc1cc(C(N)=O)ccc1NCC#Cc1cc2c(NC(=O)NC3CCN(C)CC3)cccc2n1CC(F)(F)F [Compound 7A, 3-methoxy-4-{[3-(4-{[(1-methylpiperidin-4-yl)carbamoyl]amino}-1-(2,2,2-trifluoroethyl)-1H-indol-2-yl)prop-2-yn-1-yl]amino}benzamide]	++++ (++++ = 0.2 μM ≤ SC150 < 1 μM)
CNC(=O)c1ccc(NCC#Cc2cc3c(N[C@H]4CC[C@@H](N5CC6(COC6)C5)CC4)cccc3n2CC(F)(F)F)c(OCC#N)c1 [Compound 243A, 3-(cyanomethoxy)-N-methyl-4-{[3-(4-{[(1S,4S)-4-{2-oxa-6-azaspiro[3.3]heptan-6-yl}cyclohexyl]amino}-1-(2,2,2-trifluoroethyl)-1H-indol-2-yl)prop-2-yn-1-yl]amino}benzamide]	+ (+ = 0 μM ≤ SC150 < 0.05 μM)
CS(=O)(=O)c1ccc(NCC#Cc2cc3c(N[C@H]4CC[C@@H](N5CCC6(CC5)COC6)CC4)cccc3n2CC(F)(F)F)c(OCC#N)c1 [Compound 390A, 2-(5-methanesulfonyl-2-{[3-(4-{[(1S,4S)-4-{2-oxa-7-azaspiro[3.5]nonan-7-yl}cyclohexyl]amino}-1-(2,2,2-trifluoroethyl)-1H-indol-2-yl)prop-2-yn-1-yl]amino}phenoxy)acetonitrile]	+ (+ = 0 μM ≤ SC150 < 0.05 μM)
CCN(CC)[C@H]1CC[C@H](Nc2cccc3c2cc(C#CCNc2ccc(C(=O)NC)cc2OC)n3CC(F)(F)F)CC1 [Compound 144A, 3-methoxy-N-methyl-4-{[3-(4-([(1R,4R)-4-(diethylamino)cyclohexyl]amino}-1-(2,2,2-trifluoro-ethyl)-1H-indol-2-yl)prop-2-yn-1-yl]amino}benzamide]	+ (+ = 0 μM ≤ SC150 < 0.05 μM)

Second part, the molecule after the results:

SC150 (concentration of the compound required to increase the DNA binding activity by 50%)	SMILES
+ (+ = 0 μM ≤ SC150 < 0.05 μM)	COCC(CN1CCC(Nc2cccc3c2cc(C#CCNc2ccc(S(N)(=O)=O)cc2OC)n3CC(F)(F)F)CC1)OC(C)=O (centres unmarked) [Compound 619A, 1-methoxy-3-{4-[(2-{3-[(2-methoxy-4-sulfamoylphenyl)amino]prop-1-yn-1-yl}-1-(2,2,2-trifluoroethyl)-1H-indol-4-yl)amino]piperidin-1-yl}propan-2-yl acetate]
+ (+ = 0 μM ≤ SC150 < 0.05 μM)	COCC(O)CN1CCC(Nc2cccc3c2cc(C#CCNc2ccc(S(C)(=O)=O)cc2OCC#N)n3CC(F)(F)F)CC1 (centres unmarked) [Compound 642A, 2-(2-{[3-(4-{[1-(2-hydroxy-3-methoxypropyl)piperidin-4-yl]amino}-1-(2,2,2-trifluoroethyl)-1H-indol-2-yl)prop-2-yn-1-yl]amino}-5-methanesulfonylphenoxy) acetonitrile]
+ (+ = 0 μM ≤ SC150 < 0.05 μM)	COc1cc(S(=O)(=O)Nc2cc(C)on2)ccc1NCC#Cc1cc2c(NC3CCS(=O)(=O)CC3)cccc2n1CC(F)(F)F [Compound 1040A, 4-[(3-{4-[(1,1-dioxo-1λ^6-thian-4-yl)amino]-1-(2,2,2-trifluoroethyl)-1H-indol-2-yl}prop-2-yn-1-yl)amino]-3-methoxy-N-(5-methyl-1,2-oxazol-3-yl)benzene-1-sulfonamide]
++++ (++++ = 0.2 μM ≤ SC150 < 1 μM)	CCCn1c(C#CCNc2c(F)cc(S(C)(=O)=O)cc2OC)cc2c(N[C@H]3CCN(C[C@@H](O)COC)C[C@H]3F)cccc21 [Compound 880A]
+ (+ = 0 μM ≤ SC150 < 0.05 μM)	COc1cc(S(=O)(=O)N2CCOCC2)ccc1NCC#Cc1cc2c(NC3CCS(=O)(=O)CC3)cccc2n1CC(F)(F)F [Compound 1036A, 4-{[2-(3-{[2-methoxy-4-(morpholine-4-sulfonyl)phenyl]amino}prop-1-yn-1-yl)-1-(2,2,2-trifluoroethyl)-1H-indol-4-yl]amino}-1λ^6-thiane-1,1-dione]
+ (+ = 0 μM ≤ SC150 < 0.05 μM)	CCS(=O)(=O)c1ccc(NCC#Cc2cc3c(N[C@@H]4CCNC[C@@H]4F)cccc3n2CC(F)(F)F)c(OC)c1 [Compound 935A, 2-(3-{[4-(ethanesulfonyl)-2-methoxyphenyl]amino}prop-1-yn-1-yl)-N-[(3S,4R)-3-fluoropiperidin-4-yl]-1-(2,2,2-trifluoroethyl)-1H-indol-4-amine]
+ (+ = 0 μM ≤ SC150 < 0.05 μM)	COc1cc(C(=O)NC(C)C)ccc1NCC#Cc1cc2c(N[C@@H]3CCN(C)C[C@@H]3F)cccc2n1CC(F)(F)F [Compound 808A, 4-{[3-(4-{[(3S,4R)-3-fluoro-1-methylpiperidin-4-yl]amino}-1-(2,2,2-trifluoroethyl)-1H-indol-2-yl)prop-2-yn-1-yl]amino}-3-methoxy-N-(propan-2-yl)benzamide]
+ (+ = 0 μM ≤ SC150 < 0.05 μM)	COc1cc(S(C)(=O)=O)ccc1NCC#Cc1cc2c(NC3CCN(C[C@@H](CO)OC)CC3)cccc2n1CC(F)(F)F [Compound 630A, (2S)-3-{4-[(2-{3-[(4-methanesulfonyl-2-methoxyphenyl)amino]prop-1-yn-1-yl}-1-(2,2,2-trifluoroethyl)-1H-indol-4-yl)amino]piperidin-1-yl}-2-methoxypropan-1-ol]
+ (+ = 0 μM ≤ SC150 < 0.05 μM)	COc1cc(S(N)(=O)=O)ccc1NCC#Cc1cc2c(N[C@@H]3CCNC[C@@H]3F)cccc2n1CC(F)(F)F [Compound 845A]
